These results are taken from ChEMBL document CHEMBL1134245, “Two novel and potent 3-[(o-methoxyphenyl)piperazinylethyl]-5-phenylthien” (Bioorg Med Chem Lett, 2001).

Usually Ki stands for the equilibrium dissociation constant of an inhibitor or competing ligand from its target. Read a low Ki as tighter binding.

Test [1] has as its target T1, Alpha-1D adrenergic receptor (Rattus norvegicus, UniProt P23944).
T1 sequence (P23944 whole entry): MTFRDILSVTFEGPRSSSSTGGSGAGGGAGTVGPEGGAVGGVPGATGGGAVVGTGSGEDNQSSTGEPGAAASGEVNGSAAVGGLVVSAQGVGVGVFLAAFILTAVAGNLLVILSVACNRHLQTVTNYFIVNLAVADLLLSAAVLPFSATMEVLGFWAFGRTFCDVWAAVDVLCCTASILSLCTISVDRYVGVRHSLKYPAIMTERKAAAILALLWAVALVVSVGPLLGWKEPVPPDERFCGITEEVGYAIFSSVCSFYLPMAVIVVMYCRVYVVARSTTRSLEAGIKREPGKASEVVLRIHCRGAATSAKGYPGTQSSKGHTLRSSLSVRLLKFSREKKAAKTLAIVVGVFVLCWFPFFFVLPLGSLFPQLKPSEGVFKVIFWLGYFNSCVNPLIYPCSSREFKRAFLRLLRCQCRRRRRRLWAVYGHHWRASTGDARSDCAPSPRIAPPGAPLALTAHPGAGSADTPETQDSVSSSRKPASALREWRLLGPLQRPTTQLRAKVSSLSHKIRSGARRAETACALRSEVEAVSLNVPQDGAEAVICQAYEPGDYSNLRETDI
The experiment in a line: Binding affinity towards rat Alpha-1D adrenergic receptor.

The target of test [2] is T2, Alpha-1A adrenergic receptor (Rattus norvegicus, UniProt P43140).
T2 sequence (P43140 whole entry): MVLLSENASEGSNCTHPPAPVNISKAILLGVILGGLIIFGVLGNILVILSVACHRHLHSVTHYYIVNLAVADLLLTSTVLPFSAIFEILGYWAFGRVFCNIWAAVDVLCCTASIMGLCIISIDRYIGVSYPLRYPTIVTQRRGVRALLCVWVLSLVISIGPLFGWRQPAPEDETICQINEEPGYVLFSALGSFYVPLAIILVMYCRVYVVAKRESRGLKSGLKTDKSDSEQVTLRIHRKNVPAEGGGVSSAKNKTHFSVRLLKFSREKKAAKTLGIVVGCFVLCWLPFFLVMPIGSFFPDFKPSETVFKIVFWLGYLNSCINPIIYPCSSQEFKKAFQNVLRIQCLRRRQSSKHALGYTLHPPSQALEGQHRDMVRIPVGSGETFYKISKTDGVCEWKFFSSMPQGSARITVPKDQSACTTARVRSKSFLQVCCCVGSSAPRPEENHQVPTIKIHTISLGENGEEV
The experiment in a line: Binding affinity towards rat Alpha-1A adrenergic receptor.

For test [3], the target named is T3, Alpha-1D adrenergic receptor (Homo sapiens, UniProt P25100).
T3 sequence (P25100 whole entry): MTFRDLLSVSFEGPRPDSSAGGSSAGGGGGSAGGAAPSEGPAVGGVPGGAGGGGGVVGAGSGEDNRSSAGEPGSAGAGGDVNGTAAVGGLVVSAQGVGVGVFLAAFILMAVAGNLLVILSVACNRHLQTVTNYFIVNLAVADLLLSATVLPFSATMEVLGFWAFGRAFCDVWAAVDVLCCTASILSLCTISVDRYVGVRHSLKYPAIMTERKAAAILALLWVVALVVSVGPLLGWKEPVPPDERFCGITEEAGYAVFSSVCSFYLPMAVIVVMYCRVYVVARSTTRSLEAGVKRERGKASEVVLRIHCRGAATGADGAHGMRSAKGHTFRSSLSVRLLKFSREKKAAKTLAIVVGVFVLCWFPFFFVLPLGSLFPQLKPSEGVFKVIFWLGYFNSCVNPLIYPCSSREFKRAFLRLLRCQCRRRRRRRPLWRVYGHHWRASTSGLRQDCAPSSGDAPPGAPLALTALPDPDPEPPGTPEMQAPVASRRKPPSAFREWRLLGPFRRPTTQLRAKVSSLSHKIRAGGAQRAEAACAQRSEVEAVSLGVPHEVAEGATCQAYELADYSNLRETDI
The experiment in a line: Binding affinity towards human Alpha-1D adrenergic receptor.

Test [4] deals with T4, Alpha-1A adrenergic receptor (Bos taurus, UniProt P18130).
T4 sequence (P18130 whole entry): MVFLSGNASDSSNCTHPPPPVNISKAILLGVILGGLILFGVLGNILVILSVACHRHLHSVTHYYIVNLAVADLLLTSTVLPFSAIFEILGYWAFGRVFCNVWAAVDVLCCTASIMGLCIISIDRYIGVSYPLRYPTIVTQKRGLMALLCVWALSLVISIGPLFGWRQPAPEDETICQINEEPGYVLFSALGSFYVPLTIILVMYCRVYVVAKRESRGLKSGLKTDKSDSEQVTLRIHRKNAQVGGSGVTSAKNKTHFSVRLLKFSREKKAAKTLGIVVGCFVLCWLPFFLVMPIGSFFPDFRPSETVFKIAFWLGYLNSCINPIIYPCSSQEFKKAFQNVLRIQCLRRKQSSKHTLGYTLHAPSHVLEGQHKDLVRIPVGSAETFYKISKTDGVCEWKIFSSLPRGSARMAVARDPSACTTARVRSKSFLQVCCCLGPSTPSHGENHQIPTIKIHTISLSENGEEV
The experiment in a line: Binding affinity towards bovine Alpha-1A adrenergic receptor.

Test [5] has as its target T5, Alpha-1B adrenergic receptor (Homo sapiens, UniProt P35368).
T5 sequence (P35368 whole entry): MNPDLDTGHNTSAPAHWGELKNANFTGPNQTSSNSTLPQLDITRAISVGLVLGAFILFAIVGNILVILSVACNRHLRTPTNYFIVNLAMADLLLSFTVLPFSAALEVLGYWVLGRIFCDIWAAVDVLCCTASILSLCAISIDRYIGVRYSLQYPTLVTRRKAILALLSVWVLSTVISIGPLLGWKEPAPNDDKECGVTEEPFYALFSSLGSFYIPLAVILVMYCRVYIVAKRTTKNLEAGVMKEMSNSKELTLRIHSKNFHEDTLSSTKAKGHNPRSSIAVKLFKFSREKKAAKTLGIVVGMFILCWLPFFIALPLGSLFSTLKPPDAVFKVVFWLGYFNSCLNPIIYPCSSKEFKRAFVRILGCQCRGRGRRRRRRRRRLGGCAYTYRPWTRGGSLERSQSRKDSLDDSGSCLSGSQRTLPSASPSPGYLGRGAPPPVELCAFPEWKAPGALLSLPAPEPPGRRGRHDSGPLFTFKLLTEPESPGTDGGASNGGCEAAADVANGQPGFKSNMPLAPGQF
In words: Binding affinity towards human Alpha-1B adrenergic receptor.

For test [6], the target named is T6, Alpha-1A adrenergic receptor (Homo sapiens, UniProt P35348).
T6 sequence (P35348 whole entry): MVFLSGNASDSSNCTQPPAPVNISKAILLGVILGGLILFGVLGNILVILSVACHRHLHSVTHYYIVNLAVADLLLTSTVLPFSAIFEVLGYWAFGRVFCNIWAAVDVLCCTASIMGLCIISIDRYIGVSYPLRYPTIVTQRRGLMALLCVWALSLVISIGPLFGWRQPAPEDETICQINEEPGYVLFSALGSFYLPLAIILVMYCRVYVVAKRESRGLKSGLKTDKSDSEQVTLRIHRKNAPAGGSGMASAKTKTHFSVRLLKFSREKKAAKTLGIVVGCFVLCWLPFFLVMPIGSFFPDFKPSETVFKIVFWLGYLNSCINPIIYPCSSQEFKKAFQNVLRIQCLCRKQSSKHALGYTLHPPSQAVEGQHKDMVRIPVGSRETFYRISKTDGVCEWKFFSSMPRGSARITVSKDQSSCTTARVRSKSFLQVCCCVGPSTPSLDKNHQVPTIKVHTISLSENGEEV
In words: Binding affinity for human Alpha-1A adrenergic receptor.

For test [7], the target named is T7, Alpha-1B adrenergic receptor (Rattus norvegicus, UniProt P15823).
T7 sequence (P15823 whole entry): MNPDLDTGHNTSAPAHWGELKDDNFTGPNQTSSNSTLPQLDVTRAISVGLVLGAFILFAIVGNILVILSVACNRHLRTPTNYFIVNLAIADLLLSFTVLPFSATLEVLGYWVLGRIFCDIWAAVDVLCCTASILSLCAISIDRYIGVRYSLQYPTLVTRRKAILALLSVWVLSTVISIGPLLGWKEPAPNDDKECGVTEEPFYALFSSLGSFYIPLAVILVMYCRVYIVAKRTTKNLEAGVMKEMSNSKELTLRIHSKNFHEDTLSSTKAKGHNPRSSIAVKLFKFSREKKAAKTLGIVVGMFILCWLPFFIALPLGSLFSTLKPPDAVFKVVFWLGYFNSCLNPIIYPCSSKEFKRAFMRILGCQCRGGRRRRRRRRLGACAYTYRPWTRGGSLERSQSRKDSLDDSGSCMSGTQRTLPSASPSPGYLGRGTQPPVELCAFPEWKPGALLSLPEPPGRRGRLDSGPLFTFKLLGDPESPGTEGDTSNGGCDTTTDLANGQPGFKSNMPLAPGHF
In words: In vitro functional activity at Alpha-1B adrenergic receptor in rat spleen. The following applies: read-out: pA2 (converted). The test is classed as tissue-based.

With `COc1ccccc1N1CCN(CCCn2c(=O)[nH]c3scc(-c4ccccc4)c3c2=O)CC1`, the Ki in test [1] was 8.2 nM; in test [2] it was 9.58 nM; in test [3] it was 7.15 nM; in test [4] it was 1.25 nM; in test [5], 15.8 nM; in test [6] it was 8.49 nM.
For `COc1ccccc1N1CCN(CCn2c(=O)[nH]c3sccc3c2=O)CC1`, the Ki in test [1] is 0.229 nM; in test [2] it was 0.523 nM; in test [3] it was 0.308 nM; in test [4], 0.181 nM; in test [5] it was 1.22 nM; in test [6] it was 0.344 nM.
Turning to `CC(CN1CCN(c2cc(F)c(F)cc2F)CC1)N1C(=O)CC2(CCCC2)CC1=O` (single isomer, unassigned), the inhibitory constant (Ki) in test [3] was 1.3 nM; in test [6] it was 14900 nM.
As to `COc1ccccc1N1CCN(CCn2c(=O)c3c(-c4ccccc4)csc3n(C)c2=O)CC1`, the Ki in test [1] is 0.71 nM; in test [2], 2.62 nM; in test [4], 0.436 nM; in test [6], 3.1 nM.
Take `COc1ccccc1N1CCN(CCn2c(=O)[nH]c3sc(-c4ccccc4)cc3c2=O)CC1`: the Ki came out at 0.361 nM in test [1]; 0.578 nM in test [2]; 0.248 nM in test [4]; 1.86 nM in test [5]; 0.868 nM in test [6].
With `COc1ccccc1N1CCN(CCn2c(=O)[nH]c3sc(C)c(-c4ccccc4)c3c2=O)CC1`, the Ki came to 0.251 nM in test [1]; 1.97 nM in test [2]; 0.466 nM in test [3]; 0.377 nM in test [4]; 3.7 nM in test [5]; 2.63 nM in test [6].
For the compound `COc1ccccc1N1CCN(CCN2C(=O)CC3(CCCC3)CC2=O)CC1` [BMY-7378], the Kb in test [7] was 42.7 nM. The Ki in test [4] turned out to be 43 nM; in test [5], 94.3 nM.
